Results as given in patent publication US5559158A, “Pharmaceutical composition” (Abbott Laboratories, priority 1994, dated 1996).

How the values were obtained:
HIV-1 protease = experiment: Inhibition of HIV-1 protease; format: biochemical; conditions: in words
HIV-2 protease = experiment: Inhibition of HIV-2 protease; format: biochemical; conditions: in words
[1] = Oral bioavailability study in dogs; design: species or system beagle dogs; conditions: dog, in vivo, 5 mg/kg, summary statement, dose not stated
Description: Each dog received a single solid dosage form corresponding to a 5 mg/kg dose of the drug.

[2] = listed as compound of formula II

Compound	inhibition of HIV-1 protease (HIV-1 protease)	inhibition of HIV-1 protease (HIV-1 protease; [2])	inhibition of HIV-2 protease (HIV-2 protease)	inhibition of HIV-2 protease (HIV-2 protease; [2])	bioavailability [1]
CC(C)c1nc(CN(C)C(=O)NC(C(=O)NC(Cc2ccccc2)CC(O)C(Cc2ccccc2)NC(=O)OCc2cncs2)C(C)C)cs1 (stereo not shown) [Compound II]	inhibitors	especially effective	inhibitors	especially effective	
CC(C)c1nc(CN(C)C(=O)NC(C(=O)N[C@@H](Cc2ccccc2)C[C@H](O)[C@H](Cc2ccccc2)NC(=O)OCc2cncs2)C(C)C)cs1 (stereo partly drawn) [Compound III, (2S,3S,5S)-5-(N-(N-((N-Methyl-N-((2-isopropyl-4-thiazolyl)methyl)-amino)carbonyl)valinyl)amino)-2-(N((5-thiazolyl)methoxycarbonyl)amino)-1,6-diphenyl-3-hydroxyhexane]	inhibitors		inhibitors		< 2%
